Assay results from patent US8414989B2, “Cyclodextrin compositions, articles, and methods” (Cellresin Technologies, LLC, priority 2011, dated 2013).

Tests used:
[1] = Example 2: headspace analysis of 1-butene/c/α-CD powder (GC-FID); format: physicochemical; settings: 100 mg 1-butene/c/α-CD powder, 250 mL bottle, no water, about 1 hour
Description: 1-butene/c/α-CD was analyzed by adding 100 mg of the collected and dried precipitate to a 250 mL glass bottle equipped with a septum cap, taking care to ensure that no powder adheres to the walls of the bottle. After about 1 hour, 250 μL of headspace gas was removed from the bottle using a six port, two-position gas sampling valve (Valco #EC6W) interfaced directly to a gas chromatograph (GC; Hewlett Packard 5890) using a RTx-5 GC column, 30 m×0.25 mm I.D., 0.25 μm film (obtained from Restek, Inc., of Bellefonte, Pa.) and equipped with flame ionization detector (FID). […] Then 3 mL of water was injected into the bottle through the septum, and the bottle is placed on a mechanical shaker and mixed vigorously for about 1 hour. After the shaking, 250 μL of the headspace gas is removed and added to an empty 250 mL bottle equipped with a septum cap, wherein the interior of the bottle was purged with nitrogen gas. The headspace concentration of 1-butene was quantified in the second bottle using gas chromatography by removing 250 μL, of gas from the 250 mL bottle using a six port, two-position gas sampling valve (Valco #EC6W) interfaced directly to a GC column having FID detector previously calibrated with a 6-point 1-butene (99.0% pure, Scott Specialty Gases, Plumsteadville, Pa.) calibration curve.

[2] = Example 2: 1-butene headspace release from UV-cured coating on polyethylene extrusion coated paper; format: physicochemical; settings: cured 1-butene/c/α-CD coated 5 cm x 10 cm rectangle, 250 mL bottle; for Headspace concentration of 1-butene, Ave.: 50 μL water, average of six
Description: A 20 mL bottle was charged with 9.8 g of UV Coating VP 10169/60 MF-2NE (obtained from Verga GmbH of Aschau am Inn, Germany) and 0.2 g of 1-butene/c/α-CD. The bottle was firmly capped and the components were mixed by shaking the bottle by hand until uniformly dispersed.
About 3 mL of the mixture was removed with a dropper dispensed on a glass pan. A rubber ink roller was used to spread the mixture on the glass and roller. Next, the roller was used to coat the mixture on the coated side of a 20 cm by 20 cm section of polyethylene extrusion coated paper (REYNOLDS® Freezer Paper, 90 microns total thickness). The roller delivered a coating nominal thickness of 0.3 microns. A razor blade was used to cut a 5 cm by 10 cm rectangle from the coated sheet. Then the coated cut rectangle was passed by hand about 10 cm beneath a medium pressure mercury arc lamp operating at 200 watts per inch (79 watts per cm). After 1.5 seconds exposure to the lamp, the cured rectangle was removed. The cured rectangle was allowed to sit on a laboratory bench overnight coating side down.
Six replicate coated rectangles were made in this fashion. Each rectangle was placed in a 250 mL serum bottle. Then the six bottles were sealed with TEFLON® faced silicone septa. The 1-butene headspace concentration was quantified using gas chromatography by removing 250 μL of gas from the sample bottle using a six port, two-position gas sampling valve interfaced directly to the GC column having FID detector.
Then 50 μL of deionized water was injected into each bottle. […] The headspace of each of the six sealed bottles was analyzed at 0.5, 1, 2, 4, 8, 24, and 96 hours after the injection of water wherein about 3 mL of the 250 mL bottle headspace volume was removed for each analysis. In each sampling, the amount of 1-butene released from the UV coated rectangles was quantified by gas chromatography against a 6-point 1-butene calibration curve having a 0.998 correlation coefficient. Table 1 and FIG. 1 illustrate the average of six replicate samples of 1-butene headspace concentration and standard deviation.

## C=CCC [1-Butene, 1-butene]
[1]
  Headspace concentration of 1-butene: No measurable concentration
[2]; 0.5 hours
  Headspace concentration of 1-butene, Ave.: 0.46 ppm (v/v)
[2]; 1 hour
  Headspace concentration of 1-butene, Ave.: 1.5 ppm (v/v)
[2]; 2 hours
  Headspace concentration of 1-butene, Ave.: 3.0 ppm (v/v)
[2]; 4 hours
  Headspace concentration of 1-butene, Ave.: 4.9 ppm (v/v)
[2]; 8 hours
  Headspace concentration of 1-butene, Ave.: 6.0 ppm (v/v)
[2]; 24 hours
  Headspace concentration of 1-butene, Ave.: 7.6 ppm (v/v)
[2]; 96 hours
  Headspace concentration of 1-butene, Ave.: 7.8 ppm (v/v)
[2]; before water injection
  Headspace concentration of 1-butene: No measurable concentration
